According to patent US10093650B2, “Tetrazolone-substituted dihydropyridinone MGAT2 inhibitors” (BRISTOL-MYERS SQUIBB COMPANY, priority 2014, dated 2018):

Biological target: human MGAT-2 (Homo sapiens (Human), UniProt Q3SYC2)
Assay: MGAT LCMS Assay (human MGAT2)
Assay type: biochemical
Settings: human MGAT-2 membranes expressed in Sf9 cells; 100 μM 2-oleoylglycerol, 15 μM oleoyl-coenzyme A; LC/MS readout; read-out: h-MGAT LCMS IC50
Procedure: The MGAT enzyme reactions were performed in Corning FALCON® 96-well polypropylene plates, in a total volume of 60 μL of 50 mM potassium phosphate buffer pH 7.4, containing a final concentration of 100 μM 2-oleoylglycerol, 15 μM oleoyl-coenzyme A and […] human or mouse MGAT-2 or […] rat recombinant MGAT-2 membranes expressed in Sf9 cells. Assay plates were run through a fully automated robotics system and shaken for 5 seconds every minute for a total 10 minutes. The reactions were then quenched with 120 μL of ice cold methanol containing 1 μg/mL 1,2-distearoyl-rac-glycerol as the internal standard. Plates were shaken for 2 minutes and spun down to remove protein precipitation. After the spin, samples were transferred to LC/MS compatible PCR plates. For LC/MS analysis, a ThermoFisher Surveyor pump, utilizing a Waters SYMMETRY® C8, 50×2.1 mm column, was used for the chromatography of enzyme products. The buffer system consists of 0.1% formic acid in water with a mobile phase consisting 0.1% formic acid in methanol. The shallow gradient is 90-100% mobile phase in 0.2 min with a total run time of 2.3 min. The first 0.5 minutes of each injection was diverted to waste to eliminate the presence of Phosphate buffer in the enzymatic reaction. The column was run at 0.6 mL/min and a temperature of 65° C. Mass spectrometry analysis of the samples was performed on a ThermoFisher Quantum Triple quad utilizing APCI (+) as the mode of ionization. Data was acquired in Single Ion Monitoring (SIM) mode analyzing Diolein=m/z 603.6 (PRODUCT) and 1,2-distearoyl-rac-glycerol (IS)=m/z 607.6. The ratio of Diolein to internal standard (Peak Area Ratio) is utilized to calculate IC50 values.
The exemplified Examples disclosed below were tested in the MGAT2 in vitro assays described above and were found having MGAT2 inhibitory activity. Table 1 below lists human MGAT2 IC50 values measured for the following examples.

Sequence of human MGAT-2 (Q3SYC2 whole entry): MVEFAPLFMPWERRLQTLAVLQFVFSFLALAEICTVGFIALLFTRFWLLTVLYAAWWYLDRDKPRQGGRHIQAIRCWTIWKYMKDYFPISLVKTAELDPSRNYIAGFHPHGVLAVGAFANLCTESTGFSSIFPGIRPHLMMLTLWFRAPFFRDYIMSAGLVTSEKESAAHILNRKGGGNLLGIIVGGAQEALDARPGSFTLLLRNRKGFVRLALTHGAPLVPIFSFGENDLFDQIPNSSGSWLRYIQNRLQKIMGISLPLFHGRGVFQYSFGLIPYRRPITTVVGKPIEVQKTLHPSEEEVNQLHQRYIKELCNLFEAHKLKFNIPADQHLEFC

Compound | IC50
O=C1N[C@@](c2ccc(OCCCC(F)(F)F)cc2F)(C(F)(F)F)CC(c2ccn(C3CC3)n2)=C1n1nn[nH]c1=O [Example 7] | 173 nM
CC(O)c1ccc(C2=C(n3nn[nH]c3=O)C(=O)N[C@@](c3ccc(OCCCC(F)(F)F)cc3)(C(F)(F)F)C2)s1 (stereo partly shown) [Example 19] | 10 nM
O=C1N[C@@](c2ccc(OCCCC(F)(F)F)cc2F)(C(F)(F)F)CC(c2ccc(C(F)F)cc2)=C1n1nn[nH]c1=O [Example 21] | 10 nM
COc1ccc(C2=C(n3nn[nH]c3=O)C(=O)N[C@@](c3ccc(OCCCC(F)(F)F)cc3)(C(F)(F)F)C2)cc1 [Example 3] | 340 nM
O=C1N[C@@](c2ccc(OCCCCCC(F)(F)F)cc2)(C(F)(F)F)CC(c2ccc(OC(F)F)cc2)=C1n1nn[nH]c1=O [Example 4] | 17 nM
O=C1N[C@@](c2ccc(CCCCC(F)(F)F)cc2)(C(F)(F)F)CC(c2ccn(CC3CC3)n2)=C1n1nn[nH]c1=O [Example 20] | 3 nM
O=C1N[C@@](c2ccc(OCCCC(F)(F)F)cc2F)(C(F)(F)F)CC(c2ccn(C3CCC3)n2)=C1n1nn[nH]c1=O [Example 8] | 30 nM
CCc1ccc(C2=C(n3nn[nH]c3=O)C(=O)N[C@H](c3ccc(OCCCC(F)(F)F)cc3Cl)C2)s1 [Example 24] | 36 nM
COc1ccc(C2=C(n3nn[nH]c3=O)C(=O)N[C@@](c3ccc(OCCCCCC(F)(F)F)cc3)(C(F)(F)F)C2)cc1 [Example 5] | 71 nM
CC(=O)c1ccc(C2=C(n3nn[nH]c3=O)C(=O)N[C@@](c3ccc(OCCCC(F)(F)F)cc3)(C(F)(F)F)C2)s1 [Example 18] | 8 nM
Cc1ccc(C2=C(n3nn[nH]c3=O)C(=O)N[C@@](c3ccc(OCCCC(F)(F)F)cc3)(C(F)(F)F)C2)cc1 [Example 1, (S)-3-(5-Oxo-4,5-dihydro-1H-tetrazol-1-yl)-4-(p-tolyl)-6-(4-(4,4,4-trifluorobutoxy)phenyl)-6-(trifluoromethyl)-5,6-dihydropyridin-2(1H)-one] | 27 nM
O=C1N[C@@](c2ccc(CCCCC(F)(F)F)cc2F)(C(F)(F)F)CC(c2ccn(CC3CC3)n2)=C1n1nn[nH]c1=O [Example 11] | 9 nM
O=C1N[C@@](c2ccc(OCCCC(F)(F)F)cc2F)(C(F)(F)F)CC(c2ccn(CC3CC3)n2)=C1n1nn[nH]c1=O [Example 14] | 5 nM
CCc1ccc(C2=C(n3nn[nH]c3=O)C(=O)N[C@@](c3ccc(OCCCC(F)(F)F)cc3)(C(F)(F)F)C2)s1 [Example 23] | 60 nM
CCn1ccc(C2=C(n3nn[nH]c3=O)C(=O)N[C@@](c3ccc(OCCCC(F)(F)F)cc3F)(C(F)(F)F)C2)n1 [Example 9] | 108 nM

Continued by falling IC50, values first:

IC50 | Compound
145 nM | CC(C)Cn1ccc(C2=C(n3nn[nH]c3=O)C(=O)N[C@@](c3ccc(OCCCC(F)(F)F)cc3F)(C(F)(F)F)C2)n1 [Example 15]
137 nM | CC(C)n1ccc(C2=C(n3nn[nH]c3=O)C(=O)N[C@@](c3ccc(OCCCC(F)(F)F)cc3F)(C(F)(F)F)C2)n1 [Example 6]
84 nM | CCn1ccc(C2=C(n3nn[nH]c3=O)C(=O)N[C@@](c3ccc(CCCCC(F)(F)F)cc3F)(C(F)(F)F)C2)n1 [Example 13]
36 nM | CC(C)n1ccc(C2=C(n3nn[nH]c3=O)C(=O)N[C@@](c3ccc(CCCCC(F)(F)F)cc3F)(C(F)(F)F)C2)n1 [Example 10]
34 nM | CC(C)Cn1ccc(C2=C(n3nn[nH]c3=O)C(=O)N[C@@](c3ccc(CCCCC(F)(F)F)cc3F)(C(F)(F)F)C2)n1 [Example 12]
5 nM | Cc1ccc(C2=C(n3nn[nH]c3=O)C(=O)N[C@@](c3ccc(OCCCCCC(F)(F)F)cc3)(C(F)(F)F)C2)cc1 [Example 2]
5 nM | O=C1N[C@@](c2cnn(CCCCCCC(F)(F)F)c2)(C(F)(F)F)CC(c2ccc3c(c2)CCCC3)=C1n1nn[nH]c1=O [Example 17]
